Results: publication PMC5633609, “Novel Peripherally Restricted Cannabinoid 1 Receptor Selective Antagonist TXX-522 with Prominent Weight-Loss Efficacy in Diet Induced Obese Mice” (Frontiers in Pharmacology, 2017)
Read-outs that look alike come from different tables or passages of the source.

Assays:
[1] = set-up: method as in earlier work; settings: ref Chorvat et al., 2012, Klumpers et al., 2013, Knani et al., 2016, Lu et al.; cited from earlier work
[2] = system: DIO mice and rats; set-up: method as in Alonso et al., 2012; Silvestri and Di Marzo, 2012; settings: ref Alonso et al., 2012, Silvestri and Di Marzo; cited from earlier work
[3] = system: C57BL/6 mice; assay: Acute food intake (appetite) in fasted mice; type: in vivo; settings: fasted C57BL/6 mice, oral; TXX-522 20 and 60 mg/kg, SR141716A 10 mg/kg; 3 h intake
Protocol: Mice (8-week-old) were maintained singly for 7 days with ad libitum access to a standard diet before testing. […] At 30 min post treatment, the mice were allowed access to rodent chow, and their food intake was measured for the subsequent 3 h.

[4] = molecular target: T1, human CB2R (Homo sapiens, UniProt P34972); assay: Intracellular cAMP assay in CHO-hCB2 cells; type: cell-based; set-up: host or cells: CHO (CHO-hCB2R); settings: even at 10 μmol/L
T1 sequence (P34972 whole entry): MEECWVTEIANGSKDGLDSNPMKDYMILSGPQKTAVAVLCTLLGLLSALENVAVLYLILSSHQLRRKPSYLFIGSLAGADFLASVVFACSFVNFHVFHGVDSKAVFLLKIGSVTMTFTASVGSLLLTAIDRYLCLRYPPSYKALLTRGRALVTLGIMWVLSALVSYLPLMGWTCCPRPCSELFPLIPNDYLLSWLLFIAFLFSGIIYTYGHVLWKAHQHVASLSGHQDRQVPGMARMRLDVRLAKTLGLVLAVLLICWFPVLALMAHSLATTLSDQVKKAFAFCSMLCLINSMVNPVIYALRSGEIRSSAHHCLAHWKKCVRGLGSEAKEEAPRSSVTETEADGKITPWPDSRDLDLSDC
Protocol: (§1) The functional antagonism of the response to a CB1R agonist was previously detected in the CHO-hCB1R and CHO-hCB2R cell lines ([Chen et al., 2010], [2011]). Intracellular cAMP was analyzed in these cells using the LANCE cAMP 384 kit (AD0262, PerkinElmer, San Jose, CA, United States) following exposure to the vehicle or different concentrations of the test compounds (individually or combined) in the presence of a phosphodiesterase inhibitor (2.5 μmol/L 3-isobutyl-1-methylxanthine) for 30 min. The cAMP level detected in the vehicle-treated cells was set as 1, and the levels detected in the treated cells were expressed as fold changes compared to the control level.

[5] = system: DIO C57BL/6 mice; assay: Anti-obesity study in DIO C57BL/6 mice; type: in vivo; settings: for effect on food intake of DIO mice: 1st week of administration; for effect on fasting blood glucose and insulin levels: overnight-fasted; for effect on serum triglyceride and total cholesterol: end of treatment, SR141716A 5 mg/kg, TXX-522 10 mg/kg; for onset of statistically significant body weight difference / effect on body weight of DIO mice: oral gavage daily 4 weeks; for effect on body weight of DIO mice: SR141716A 5 mg/kg/day
Protocol: Male C57BL/6J mice (6-week-old) were maintained on a 12-h light/dark cycle at a controlled temperature (22 ± 1°C) and were fed a high-fat diet (45% fat, 18% protein, and 37% carbohydrate) for 20 weeks to establish the DIO mouse model ([Chen et al., 2010], [2011]). Age-matched standard diet-fed lean mice were used as the normal control group. […] Individual body weights and cage food consumption were measured daily. Oral glucose tolerance testing was performed on treatment day 23 on overnight-fasted mice while the serum glucose and insulin levels were assayed as described previously ([Chen et al., 2013]). At the end of the treatment period, the mice were fasted overnight prior to collecting blood samples for the analysis of serum triglycerides and total cholesterol levels as described previously ([Xie et al., 2015]). Furthermore, the intra-abdominal white adipose tissues (epididymal, lumbar, and perirenal) were removed and weighed.

[6] = Steady state brain to plasma distribution after intravenous administration; type: in vivo, Sprague-Dawley rats; settings: rat; for fraction of compound in the brain tissue: intravenous, steady state
Protocol: The compounds (2.5 mg/kg) were dissolved in 5% glucose solution containing polyoxyethylene castor oil (2.17%), 1,2-propanediol (0.56%), ethanol (0.75%), and medium chain triglycerides (0.48%) prior to intravenous administration to the Sprague-Dawley rats (n = 3), with an initial push of 0.3 mL at a speed of 75 mL/h, followed by 2.5 mL/h for 40 min. Retro-orbital blood samples (∼250 μL) were collected at defined time-points (0, 10, 15, 20, 25, 30, 35, and 40 min after dosing). The rats were then euthanized by decapitation, the brain and plasma samples were collected, and then stored at -80°C for subsequent assay. The plasma samples and whole rat brain, which had been homogenized with five volumes (v/w) of physiological saline on ice, were extracted by protein precipitation and analyzed using liquid chromatography-mass spectrometry/mass spectrometry, as previously reported ([Fulp et al., 2012]). The steady state Kp-value for each test compound was calculated and used as an index of brain penetration.

[7] = system: C57BL/6 mice; assay: WIN 55,212-2-induced hypothermia / body temperature; type: in vivo, C57BL/6J mice; settings: for effect on WIN 55,212-2-induced hypothermia: oral, 1 h before WIN 55,212-2 3 mg/kg i.p., SR141716A 10 mg/kg, TXX-522 20 or 60 mg/kg, 30 min after WIN; for effect of compound alone on body temperature: TXX-522 alone, data not shown, WIN 55,212-2 3 mg/kg i.p.
Protocol: After a 7-day acclimation, body weight-matched male C57BL/6J mice (8-week-old) were randomly sorted into four different groups (n = 5 mice/group). […] The rectal temperature was monitored using a rectal probe coupled to a digital thermometer before and 30 min after treatment with WIN 55,212-2.

[8] = molecular target: T2, human CB1R (Homo sapiens, UniProt P21554); assay: Intracellular cAMP assay in CHO-hCB1 cells; type: cell-based; set-up: host or cells: CHO (CHO-hCB1R)
T2 sequence (P21554 whole entry): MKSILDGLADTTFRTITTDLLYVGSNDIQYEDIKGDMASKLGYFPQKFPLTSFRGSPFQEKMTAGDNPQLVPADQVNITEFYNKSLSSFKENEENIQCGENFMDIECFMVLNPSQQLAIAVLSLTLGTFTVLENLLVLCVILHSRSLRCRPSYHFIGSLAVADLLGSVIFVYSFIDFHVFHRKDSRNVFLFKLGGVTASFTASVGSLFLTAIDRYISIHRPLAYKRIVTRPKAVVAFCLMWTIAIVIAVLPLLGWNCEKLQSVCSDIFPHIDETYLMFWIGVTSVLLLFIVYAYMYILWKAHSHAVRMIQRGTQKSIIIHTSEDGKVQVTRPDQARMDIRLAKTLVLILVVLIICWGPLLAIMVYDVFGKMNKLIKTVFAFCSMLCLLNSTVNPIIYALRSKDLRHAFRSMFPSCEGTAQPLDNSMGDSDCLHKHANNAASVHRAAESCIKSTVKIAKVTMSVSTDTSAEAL
Protocol: as §1

[9] = molecular target: T1, human CB2R; assay: Competitive radioligand binding assay, CHO-hCB2R; set-up: host or cells: CHO (CHO-hCB2R); settings: CHO-hCB2R cells; read-out: IC50, CB2 receptor competitive binding
Protocol: (§2) The affinities of TXX-522 for the human CB1R and CB2R receptor were analyzed using Cerep cooperation (Celle l’Evescault, France) using stably transfected CHO cells (CHO-hCB1R and CHO-hCB2R, respectively) and a previously reported competitive binding assay ([Munro et al., 1993]; [Chen et al., 2011]). Non-specific binding was determined in the presence of 10 μmol/L non-radioactive WIN 55,212-2. […] Each competitive binding inhibition curve was generated using data pooled from three independent experiments each conducted in duplicate.

[10] = molecular target: T2, human CB1R; type: binding; set-up: host or cells: CHO (CHO-hCB1R)
Protocol: as §2

[11] = molecular target: T1, human CB2R; assay: Receptor internalization (redistribution) assay in EGFP-CB2_U2OS cells; type: cell-based; settings: read-out: IC50 CB2R, antagonism of WIN 55,212-2-induced internalization
From the text: (§3) Commercial enhanced green fluorescent protein (EGFP)-CB1/CB2_U2OS cells specifically designed to screen CB1R/CB2R agonists or antagonists (Thermo Fisher Bioimage ApS, Soeborg, Denmark) were used to examine the antagonist activity and selectivity of TXX-522 for these CBR subtypes. […] Based on a previously described method ([Chen et al., 2011]), the regular EGFP-CB1/CB2_U2OS cell culture medium was replaced with F12 culture medium containing 1 μmol/L Hoechst 33342 (Invitrogen, OR, United States) before each experiment, and incubated for 20 min at 37°C. […] Dimethyl sulfoxide (DMSO, 0.1%) was used as the vehicle control. After further incubation for 2 h at 37°C, images of the cells were acquired using the IN Cell Analyzer 2000 (GE Healthcare, NJ, United States; 20× objective) and analyzed using the Granularity Analysis Module of the IN Cell. The inhibition ratio of each tested compound was expressed as percentage inhibition of the internalization induced by the reference CB1R/CB2R agonist, WIN 55,212-2. […] The results were obtained from three independent experiments each performed in triplicate.

[12] = molecular target: T2, human CB1R; type: cell-based
From the text: as §3

[13] = system: DIO Kunming mice; assay: Preliminary screening test in DIO Kunming mice; type: in vivo; settings: 3-week treatment, 20 mg/kg, data not shown
From the text: Finally, we further evaluated the in vivo pharmacodynamic effects of TXX-522 in a commonly used mouse model of obesity.

[14] = system: rat hippocampal neurons; assay: Fluoro-3 AM Ca2+ imaging in hippocampal neurons; type: cell-based; settings: 10 nmol/L to 10 μmol/L; WIN 55,212-2 1 μmol/L; concentration-dependent
Protocol: Hippocampal neurons were prepared from neonatal rats as described previously and intracellular Ca^2+ levels ([Ca^2+]i) were investigated ([Chen et al., 2010]). […] WIN 55,212-2 (1 μmol/L) was added 1 min later. The fluorescence was monitored and imaged using the IN Cell Analyzer 1000 and analyzed using the Object Intensity Analysis Module of IN Cell. The [Ca^2+]i time courses were monitored by recording the relative fluorescence intensity per cell vs. time.

[15] = 2.5 mg/kg intravenous infusion, 40 min

For `CC(C)[C@H](N=C(NS(=O)(=O)c1ccc(Cl)cc1)N1C[C@H](c2ccccc2)C(c2ccc(Cl)cc2)=N1)C(N)=O` [JD-5037], the “brain to plasma distribution ratio (Kp)” value [1] is listed as under 1 and the “anorexia in DIO mice and rats” value [2] is listed as “induced anorexia”.
In the case of `CCCCCCc1nc(-c2ccc(Cl)cc2)n(-c2ccc(Cl)cc2Cl)n1` [LH-21], the “anorexia in DIO mice and rats” value [2] is listed as “induced anorexia”.
In the case of `Cc1c(C(=O)NN2CCCCC2)nn(-c2ccc(Cl)cc2Cl)c1-c1ccc(Cl)cc1` [SR141716A, reference compound], the “effect on acute food intake” value [3] is reported as “significantly inhibited food intake”, the “effect on intracellular cAMP level in CHO-hCB2 cells” value [4] is reported as “neither TXX-522 nor SR141716A affected” and the “effect on food intake of DIO mice” value [5] is reported as “reduced food intake”. The “effect on fasting blood glucose and insulin levels” value ([5]; DIO mice) was “dramatically decreased”, the “effect on serum triglyceride and total cholesterol” value [5] was “notably reduced hypertriglyceridemia” and the “onset of statistically significant body weight difference” value [5] was “from day 4 onward”. For the same compound, the “effect on body weight of DIO mice” value ([5]; TXX-522 5 or 10 mg/kg/day) was “significant reduction”, the Kp at 40 min ([6]; Sprague-Dawley, brain and plasma, 2.5 mg/kg intravenous infusion, read-out: Kp (brain to plasma distribution ratio, steady state)) was 1.67 and the “fraction of compound in the brain tissue” value [6] was over 60%. For the same compound, the “effect on WIN 55,212-2-induced hypothermia” value [7] was “reversed”.
For `Cc1c(C(=O)c2cccc3ccccc23)c2cccc3c2n1[C@H](CN1CCOCC1)CO3` [WIN 55,212-2, reference compound], the “effect of compound alone on body temperature” value [7] was “notably decreased the body temperature”.
With “(5-(4-chlorophenyl)-1-(2, 4-dichlorophenyl)-4-methyl-1H-pyrazol-3-yl) (piperidin-1-yl) methanone [TXX-522]” the “reversal of WIN 55,212-2-induced inhibition of forskolin-stimulated cAMP accumulation” value ([8]; WIN 1 μmol/L, forskolin 0.1 μmol/L) was “dose-dependently reversed”, the “maximum effect on cAMP” value ([8]; at 10 μmol/L with forskolin plus WIN) was “equivalent to that induced by forskolin alone” and the “effect of compound alone on forskolin-induced cAMP level (inverse agonism)” value ([8]; up to 10 μmol/L, data not shown) was “no further increase”. It also gave an IC50 [9] of over 30 µM, an IC50 ([10]; CHO-hCB1R cells, radioligand [3H]-CP 55,940 or [3H]-SR141716A, read-out: IC50, CB1R competitive binding) of 0.17 µM and a Ki ([10]; CHO-hCB1R cells, radioligand [3H]-CP 55,940 or [3H]-SR141716A, read-out: Ki, CB1R competitive binding) of 0.15 µM. For the same compound, the “selectivity ratio (CB1R over CB2R, binding)” value ([10]; from radioligand binding values) was 176, the IC50 [11] was over 10 µM and the “effect on acute food intake” value [3] was “did not affect acute food consumption”. For the same compound, the IC50 ([12]; EGFP-CB1_U2OS cells, WIN 55,212-2 1 μmol/L, read-out: IC50 CB1R, antagonism of WIN 55,212-2-induced internalization) was 0.0103 ± 0.00608 µM, the “CB2R/CB1R selectivity (internalization IC50 ratio)” value ([12]; EGFP-CB1_U2OS vs EGFP-CB2_U2OS cells) was over 968 and the “effect on intracellular cAMP level in CHO-hCB2 cells” value [4] was “neither TXX-522 nor SR141716A affected”. For the same compound, the “effect on insulin resistance and hyperinsulinemia” value ([5]; 5 mg/kg) was “ameliorated the insulin resistance and hyperinsulinemia more than the same dose of SR141716A did”, the “effect on food intake of DIO mice” value [5] was “no anorexia” and the “adverse effects / apparent signs of toxicity” value ([5]; DIO mice, 4 weeks, TXX-522 5 or 10 mg/kg/day) was “no adverse effects”. For the same compound, the “effect on fasting blood glucose and insulin levels” value ([5]; DIO mice) was “dramatically decreased”, the “weight loss and abdominal fat decrease by the end of the study” value ([5]; chronic treatment, 5 and 10 mg/kg, compared with SR141716A) was “comparable efficacy to that of SR141716A” and the “effect on serum triglyceride and total cholesterol” value [5] was “lowered both serum triglyceride and total cholesterol levels”. The “onset of statistically significant body weight difference” value [5] was “from 2 weeks”, the “effect on body weight of DIO mice” value ([5]; TXX-522 5 or 10 mg/kg/day) was “dose-dependently decreased” and the “oral glucose tolerance testing” value ([5]; treatment day 23, 5 mg/kg) was “ameliorated glucose intolerance more than the same dose of SR141716A did”. The “effect on body weight and fat mass” value [13] was “significantly reduced body weight and fat mass”, the “Kp (brain to plasma distribution ratio, steady state)” value ([6]; 2.5 mg/kg intravenous infusion) was 0.02 and the “steady state concentration in brain” value [6, 15] was 528.9 ± 1.6 ng/mL. The “steady state concentration in plasma” value [6, 15] was 23323.0 ± 267.8 ng/mL, the “fraction of compound in the brain tissue” value [6] was 2% and the “effect of compound alone on body temperature” value [7] was “did not affect the body temperature”. The “effect on WIN 55,212-2-induced hypothermia” value [7] was “did not block” and the “effect on elevation and oscillation of [Ca2+]i elicited by WIN 55,212-2” value [14] was “blocked”.
